SMILES strings stand for the structures.

The test system of test [1] is osteoporosis rats. Nature of the test: Femoral ash level, osteoporosis rats (Example 24). It counts as in vivo. Particulars: male rats; CSO high, medium and low dose (15, 7.5, 3.8 mg/kg)+calcium acetate 158 mg/kg; compared with model group, P<0.01, P<0.05. On the procedure:
(§1) Ninety female SD rats weighing 200-220 g were used. The rats adapted to the environment for 3 d. Fasting but freely taking water for 24 h before surgery. Rats were injected intraperitoneally with 3% chloral hydrate and anesthetised. Ten […] were used as the sham-operated group with longitudinal incisions on the skin and muscle from both sides of the lumbar and dorsal spine without removing the ovaries. For the other animals, longitudinal incisions were made from both sides of the lumbar and dorsal spine to cut the skin and muscle, and both ovaries were removed, and the wounds were sutured. All animals were intramuscular injected with penicillin for 3 consecutive days after operation. (Male rats were operated with the same method to remove testicles).
(§2) On the second day after surgery, ovariectomized rats were randomly divided into 8 groups with […] in each group:
(§3) On the second day after surgery, rats were given by intragastric administration with an administration volume of 0.2 mL/100 g. The sham-operated group and model group were given in the same volume of normal saline. […]
(§4) The rats were sacrificed, and the femur on both sides was separated. The right femur was taken and measured for the following indexes: bone weight coefficient (g/100 g body weight), bone density, ash level, bone calcium or bone phosphorus, bone hydroxyproline, HE pathology. […]

Test [2] deals with osteoporosis rats. Kind of test: Bone phosphorus level, osteoporosis rats (Example 24). Type of test: in vivo. Particulars: male rats; CSO low-dose (3.8 mg/kg)+calcium acetate 158 mg/kg; compared with model group, P<0.05, P<0.01. On the procedure: as §1, §2, §3, §4

On to `CC(=O)[O-].CC(=O)[O-].[Ca+2]` [Ca, Calcium acetate], for which the “level of femoral ashes” value in test [1] is given as “significantly increased”. Further, the bone phosphorus level result in test [2] is “significantly increased”.

Source of the values: patent US12624128B2, “Low molecular weight chondroitin sulfate, composition, preparation method and use thereof” (NANJING HANXIN PHARMACEUTICAL TECHNOLOGY CO., LTD., priority 2019, dated 2026).
